Data from PubChem BioAssay (NCI).
In brackets after ≈: the same amount, converted by molar mass.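 Five concentrations, 48 hours, 96-well plates. GI50 marks 50% less growth. At the TGI there is no net growth.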 Where a SMILES comes first, the peptide text is derived from it. The star is where a group is joined. OBn = c1ccc(CO*)cc1

What was measured:
Assay in all cases: growth of human tumour cells (NCI), 48 h
CCRF-CEM leukemia = system: CCRF-CEM leukemia
MDA-N = system: MDA-N
786-0 renal = system: 786-0 renal
A498 renal = system: A498 renal
A549 NSCLC = system: A549 NSCLC
ACHN renal = system: ACHN renal
BT-549 breast = system: BT-549 breast
CAKI-1 renal = system: CAKI-1 renal
COLO 205 colon = system: COLO 205 colon
DU-145 prostate = system: DU-145 prostate
EKVX NSCLC = system: EKVX NSCLC
HCC-2998 colon = system: HCC-2998 colon
HCT-116 colon = system: HCT-116 colon
HCT-15 colon = system: HCT-15 colon
HL-60(TB) leukemia = system: HL-60(TB) leukemia
HOP-62 NSCLC = system: HOP-62 NSCLC
HOP-92 NSCLC = system: HOP-92 NSCLC
HS 578T breast = system: HS 578T breast
HT29 colon = system: HT29 colon
IGROV1 ovarian = system: IGROV1 ovarian
K-562 leukemia = system: K-562 leukemia
KM12 colon = system: KM12 colon
LOX IMVI melanoma = system: LOX IMVI melanoma
M14 melanoma = system: M14 melanoma
MALME-3M melanoma = system: MALME-3M melanoma
MCF7 breast = system: MCF7 breast
MDA-MB-231 breast = system: MDA-MB-231 breast
MDA-MB-435 = system: MDA-MB-435
MOLT-4 leukemia = system: MOLT-4 leukemia
NCI-H226 lung = system: NCI-H226 lung
NCI-H23 lung = system: NCI-H23 lung
NCI-H460 lung = system: NCI-H460 lung
NCI-H522 lung = system: NCI-H522 lung
NCI/ADR-RES ovarian = system: NCI/ADR-RES ovarian
OVCAR-3 ovarian = system: OVCAR-3 ovarian
OVCAR-4 ovarian = system: OVCAR-4 ovarian
OVCAR-5 ovarian = system: OVCAR-5 ovarian
OVCAR-8 ovarian = system: OVCAR-8 ovarian
PC-3 prostate = system: PC-3 prostate
RPMI-8226 leukemia = system: RPMI-8226 leukemia
RXF 393 renal = system: RXF 393 renal
SF-268 CNS = system: SF-268 CNS
SF-295 CNS = system: SF-295 CNS
SF-539 CNS = system: SF-539 CNS
SK-MEL-2 melanoma = system: SK-MEL-2 melanoma
SK-MEL-28 melanoma = system: SK-MEL-28 melanoma
SK-MEL-5 melanoma = system: SK-MEL-5 melanoma
SK-OV-3 ovarian = system: SK-OV-3 ovarian
SN12C renal = system: SN12C renal
SNB-19 CNS = system: SNB-19 CNS
SNB-75 CNS = system: SNB-75 CNS
SR leukemia = system: SR leukemia
SW-620 colon = system: SW-620 colon
T-47D breast = system: T-47D breast
TK-10 renal = system: TK-10 renal
U251 CNS = system: U251 CNS
UACC-257 melanoma = system: UACC-257 melanoma
UACC-62 melanoma = system: UACC-62 melanoma
UO-31 renal = system: UO-31 renal

SMILES: CC(=O)NC(C(=O)N1CCCC1C(=O)OCc1ccccc1)C(C)C (stereo not drawn) (Ac-Val-Pro-OBn; configuration not given here)
- GI50 (CCRF-CEM leukemia): 52 µg/mL
- GI50 (MDA-N): 80.7 µg/mL (≈ 233 µM)

SMILES: Oc1ccc2ccccc2c1C1NN=C(c2ccccc2)S1 (stereo not drawn)
- GI50 (786-0 renal): 0.424 µM
- TGI (786-0 renal): > 34.6 µM
- GI50 (A498 renal): 1.34 µM
- TGI (A498 renal): 14.1 µM
- GI50 (A549 NSCLC): 0.587 µM
- TGI (A549 NSCLC): 84.1 µM
- GI50 (ACHN renal): 0.343 µM
- TGI (ACHN renal): > 40 µM
- GI50 (BT-549 breast): 0.858 µM
- TGI (BT-549 breast): 28.9 µM
- GI50 (CAKI-1 renal): 0.339 µM
- TGI (CAKI-1 renal): 17.8 µM
- GI50 (CCRF-CEM leukemia): 0.359 µM
- TGI (CCRF-CEM leukemia): > 100 µM
- GI50 (COLO 205 colon): 0.55 µM
- TGI (COLO 205 colon): 16.3 µM
- GI50 (DU-145 prostate): 0.479 µM
- TGI (DU-145 prostate): 37.2 µM
- GI50 (EKVX NSCLC): 0.633 µM
- TGI (EKVX NSCLC): > 94.7 µM
- GI50 (HCC-2998 colon): 0.353 µM
- TGI (HCC-2998 colon): 16.6 µM
- GI50 (HCT-116 colon): 0.408 µM
- TGI (HCT-116 colon): > 34.4 µM
- GI50 (HCT-15 colon): 0.399 µM
- TGI (HCT-15 colon): > 50.8 µM
- GI50 (HL-60(TB) leukemia): 0.353 µM
- TGI (HL-60(TB) leukemia): 4.13 µM
- GI50 (HOP-62 NSCLC): 0.454 µM
- TGI (HOP-62 NSCLC): 31.7 µM
- GI50 (HOP-92 NSCLC): 0.244 µM
- TGI (HOP-92 NSCLC): 12.2 µM
- GI50 (HS 578T breast): 2.41 µM
- TGI (HS 578T breast): 44.4 µM
- GI50 (HT29 colon): 0.724 µM
- TGI (HT29 colon): 40 µM
- GI50 (IGROV1 ovarian): 0.485 µM
- TGI (IGROV1 ovarian): 30.3 µM
- GI50 (K-562 leukemia): 0.504 µM
- TGI (K-562 leukemia): > 100 µM
- GI50 (KM12 colon): 0.409 µM
- TGI (KM12 colon): 32.9 µM
- GI50 (LOX IMVI melanoma): 0.327 µM
- TGI (LOX IMVI melanoma): 13 µM
- GI50 (M14 melanoma): 0.279 µM
- TGI (M14 melanoma): 0.819 µM
- GI50 (MALME-3M melanoma): 1.56 µM
- TGI (MALME-3M melanoma): 21 µM
- GI50 (MCF7 breast): 0.426 µM
- TGI (MCF7 breast): 21.2 µM
- GI50 (MDA-MB-231 breast): 0.621 µM
- TGI (MDA-MB-231 breast): 35.7 µM
- GI50 (MDA-MB-435): 0.632 µM
- TGI (MDA-MB-435): 42.4 µM
- GI50 (MOLT-4 leukemia): 0.467 µM
- TGI (MOLT-4 leukemia): > 56.9 µM
- GI50 (NCI-H226 lung): 0.647 µM
- TGI (NCI-H226 lung): 14.2 µM
- GI50 (NCI-H23 lung): 1.26 µM
- TGI (NCI-H23 lung): 48.7 µM
- GI50 (NCI-H460 lung): 0.34 µM
- TGI (NCI-H460 lung): 11 µM
- GI50 (NCI-H522 lung): 0.307 µM
- TGI (NCI-H522 lung): 13.5 µM
- GI50 (NCI/ADR-RES ovarian): 0.383 µM
- TGI (NCI/ADR-RES ovarian): 62.8 µM
- GI50 (OVCAR-3 ovarian): 0.443 µM
- TGI (OVCAR-3 ovarian): 11.8 µM
- GI50 (OVCAR-4 ovarian): 0.515 µM
- TGI (OVCAR-4 ovarian): > 71.3 µM
- GI50 (OVCAR-5 ovarian): 1.95 µM
- TGI (OVCAR-5 ovarian): > 77.5 µM
- GI50 (OVCAR-8 ovarian): 0.439 µM
- TGI (OVCAR-8 ovarian): > 100 µM
- GI50 (PC-3 prostate): 0.645 µM
- TGI (PC-3 prostate): > 100 µM
- GI50 (RPMI-8226 leukemia): 0.237 µM
- TGI (RPMI-8226 leukemia): > 100 µM
- GI50 (RXF 393 renal): 0.812 µM
- TGI (RXF 393 renal): 20 µM
- GI50 (SF-268 CNS): 0.418 µM
- TGI (SF-268 CNS): 29.1 µM
- GI50 (SF-295 CNS): 0.475 µM
- TGI (SF-295 CNS): 62.2 µM
- GI50 (SF-539 CNS): 0.361 µM
- TGI (SF-539 CNS): 16 µM
- GI50 (SK-MEL-2 melanoma): 0.41 µM
- TGI (SK-MEL-2 melanoma): 14.9 µM
- GI50 (SK-MEL-28 melanoma): 0.799 µM
- TGI (SK-MEL-28 melanoma): 97.8 µM
- GI50 (SK-MEL-5 melanoma): 0.342 µM
- TGI (SK-MEL-5 melanoma): 2 µM
- GI50 (SK-OV-3 ovarian): 0.519 µM
- TGI (SK-OV-3 ovarian): 20.5 µM
- GI50 (SN12C renal): 0.61 µM
- TGI (SN12C renal): 35.7 µM
- GI50 (SNB-19 CNS): 0.683 µM
- TGI (SNB-19 CNS): > 100 µM
- GI50 (SNB-75 CNS): 1.02 µM
- TGI (SNB-75 CNS): 32.2 µM
- GI50 (SR leukemia): 0.473 µM
- TGI (SR leukemia): > 100 µM
- GI50 (SW-620 colon): 0.806 µM
- TGI (SW-620 colon): > 100 µM
- GI50 (T-47D breast): 0.525 µM
- TGI (T-47D breast): 33.5 µM
- GI50 (TK-10 renal): 0.559 µM
- TGI (TK-10 renal): 38.2 µM
- GI50 (U251 CNS): 0.461 µM
- TGI (U251 CNS): 48.5 µM
- GI50 (UACC-257 melanoma): 0.561 µM
- TGI (UACC-257 melanoma): 12 µM
- GI50 (UACC-62 melanoma): 0.362 µM
- TGI (UACC-62 melanoma): 6.3 µM
- GI50 (UO-31 renal): 0.409 µM
- TGI (UO-31 renal): > 20.4 µM
